Source: PMC8959576 (Frontiers in Immunology, 2022)

Key:
BMDCs [1] = test: Cytokines assay (ELISA of BMDC supernatants); type: cell-based, mouse; conditions: lipopeptide 1 μg/mL, 48 h, n=3, Figure 3G
Protocol: (§1) Bone marrow-derived dendritic cells (BMDCs) were isolated using methods described previously ([26], [27]). Briefly, the cells were obtained by flushing the femurs of female BALB/C mice, then differentiated in RPMI 1640 medium containing 10% FBS and supplemented with IL-4 (10ng/mL) and GM-CSF (10ng/mL) for 7 days at 37°C in 5% CO2.
BMDCs (4 × 10^6 cells/well in 4mL RMPI-1640 medium) were stimulated with either synthetic lipopeptide (1 μg/mL) or PBS for 48 h. The expressions of IL-1β, TNF-α and IL-12 were analyzed by ELISA kit according to the manufacturer’s instructions.

BALB/c mice [2] = test: Intranasal immunization with SARS-CoV-2 rRBD plus lipopeptide, specific antibody ELISA; conditions: for RBD-specific serum IgG / RBD-specific serum IgA: intranasal rRBD with or without lipopeptide; for RBD-specific serum IgG: n=5, Figure 8A; for RBD-specific serum IgA: n=5, Figure 8B; for RBD-specific serum IgG1 compared with rRBD alone group: n=5, Figure 8C
Protocol: (§2) For OVA immunization, mice were divided into 7 groups randomly. Mice were the mice were anesthetized with pentobarbital sodium (50 mg/kg) and then intranasally immunized with PBS, OVA (10 μg), OVA (10 μg) plus one of the following lipopeptides: LP1-30, LP1-34, LP2-2 and LP2-3 or OVA plus Pam2CSK4 on day 0, 14, 28. […] For SARS-CoV-2 recombinant RBD (rRBD) immunization, mice were intranasally immunized at two-week intervals with PBS, rRBD, rRBD plus LP1-34, rRBD plus LP2-2 or rRBD plus Pam2CSK4. Two weeks post the final immunization, mice were sacrificed and sera, saliva, stomach homogenates, intestinal lavage fluid and vaginal wash were collected for further analysis.
(§3) Specific IgG and sIgA levels were determined by standard indirect ELISA. 96-well flat bottom plates were coated with OVA or rRBD and incubated overnight at 4°C. After blocking with 5% BSA in PBST, the diluted samples were added into the plates and incubated at 37°C for 1h. HRP-conjugated goat anti-mouse IgG, IgG1, IgG2a or IgA was used as a secondary antibody. TMB substrate solution was added each well and incubated about 5-10 min. Then, the reaction was ended by adding stop solution. Finally, the optical density was detected by at 450nm in a micro-plate reader (Thermo Scientific).

SARS-CoV-2 pseudovirus = conditions: in vivo
BALB/c mice [3] = test: Intranasal immunization with OVA plus lipopeptide, specific antibody ELISA; conditions: for serum OVA-specific IgA / serum OVA-specific IgG: intranasal OVA (10 μg) plus lipopeptide, day 0, 14, 28, sera 14 days after final immunization, compared with OVA alone; for serum OVA-specific IgA / serum OVA-specific IgG / vaginal OVA-specific IgG compared with Pam2CSK4 / serum OVA-specific IgG response compared with Pam2CSK4: n=5; for OVA-specific sIgA in BALF compared with Pam2CSK4: n=5, Figures 5J, K; for vaginal OVA-specific IgG compared with Pam2CSK4: vaginal wash, only adjuvanted with LP2-2 reached significance; for serum OVA-specific IgG2a levels / serum OVA-specific IgG response compared with Pam2CSK4: intranasal OVA plus lipopeptide; for serum OVA-specific IgG2a levels: n=5, Figure 4H
Protocol: as §2, §3

[4] = target: T1, HEK-Blue mTLR2 cells (TLR2) (Mus musculus, UniProt Q9QUN7); test: TLR2 signaling assay (SEAP activity, HEK-Blue detection); type: cell-based; conditions: 14 h at 37°C, read at 620 nm, n=3, Figure 2A
T1 construct: host or cells: HEK-Blue mTLR2 cells (HEK293-derived reporter line)
Protocol: HEK-Blue™ detection was prepared according to manufacturer’s instruction. Briefly, the lipopeptides were added into a flat-bottom 96-well plate (20μL per well) and endotoxin-free water was used as a negative control. Then HEK-Blue™ mTLR2 cells were suspended in HEK-Blue™ detection and added into the plate (180μL per well, 5×10^4 cells). After incubation at 37°C for 14h, the SEAP activity was measured by a spectrophotometer at 620nm.

RBD-ACE2 interaction = test: SARS-CoV-2 neutralizing antibody detection (ELISA) after rRBD immunization; conditions: for rRBD-induced SARS-CoV-2 neutralizing antibody in sera (inhibition of RBD-ACE2 interaction): n=5, compared with rRBD alone group, Figures 9A, B
Protocol: For SARS-CoV-2 recombinant RBD (rRBD) immunization, mice were intranasally immunized at two-week intervals with PBS, rRBD, rRBD plus LP1-34, rRBD plus LP2-2 or rRBD plus Pam2CSK4. Two weeks post the final immunization, mice were sacrificed and sera, saliva, stomach homogenates, intestinal lavage fluid and vaginal wash were collected for further analysis.
SARS-CoV-2 neutralizing antibody detection was performed according to the manufacturer’s instruction (zybio). Briefly, the diluted sera, BALF or nasal wash mixed with HRP-conjugated RBD were added into the hACE2-coated plate, and then the plate was incubated at 37°C for 1h. After washing the plate, the TMB substrate was added and incubated at 37°C for 10min. Finally, the reaction was ended by adding the stop solution and the absorbance was measured with a micro-plate reader (Thermo Scientific) at 450 nm.

TLR2 = conditions: cited from earlier work
Source text: In recent years, a variety of lipopeptides have been designed and synthesized to exert adjuvant effects through activating TLR2 ([18]–[20]). […] The TLR2 activity of FSL-1 can reach 4 times that of MALP-2, while Pam2CSK4 is the ...

BALB/c mice [5] = type: in vivo, mouse; conditions: splenic lymphocytes, 10 μg/mL peptide, 48 h, n=5, Figure 6
[6] = cited from earlier work
Source text: A number of studies have shown that lipopeptides have a significant mucosal adjuvant effect ([36]–[38]). MALP-2, the mycoplasma-derived lipopeptide, elevated the level of sIgA in BALF and vaginal lavages when intranasal co-administration with a soluble antigen ([25]).

BMDCs [7] = test: Cell viability assay (MTT); type: cell-based, mouse; conditions: test concentrations 10-200μg/mL, 48 h, n=3, Figure S3A
Protocol: The cell viability was analyzed by MTT assay. Briefly, BMDCs were cultured with gradient dilutions of each lipopeptide for 48 h. After that, 20 μL of a MTT solution (5 mg/ml) were added per well and incubated at 37°C for 4 h. Then, the mixture was removed from the well and 100 μL DMSO were added. The absorbance was detected at a wavelength of 570 nm. % surviving cells = Mean optical absorption of cells exposed to the lipopeptide/Mean optical absorption of control cells × 100.
as §1

BMDCs [8] = test: BMDC maturation surface markers by flow cytometry; type: cell-based, mouse; conditions: BMDCs stimulated 2 days, FACS, Figures 3A-D
Protocol: as §1
BMDCs were collected after being treated with each lipopeptidet for 48h. The expressions of surface markers on BMDCs were detected by FCM with a FACS Canto II (BD Biosciences). The cells were stained with CD11c-FITC (Biolegend, 117306), CD86-PerCP (Biolegend, 105026), CD80-APC (Biolegend, 104714) and CD40-PE (Biolegend, 124610) at 4°C for 30min. After washing with PBS, the expression of costimulatory molecules was detected by flow cytometer.

T1 sequence (Q9QUN7 25-784): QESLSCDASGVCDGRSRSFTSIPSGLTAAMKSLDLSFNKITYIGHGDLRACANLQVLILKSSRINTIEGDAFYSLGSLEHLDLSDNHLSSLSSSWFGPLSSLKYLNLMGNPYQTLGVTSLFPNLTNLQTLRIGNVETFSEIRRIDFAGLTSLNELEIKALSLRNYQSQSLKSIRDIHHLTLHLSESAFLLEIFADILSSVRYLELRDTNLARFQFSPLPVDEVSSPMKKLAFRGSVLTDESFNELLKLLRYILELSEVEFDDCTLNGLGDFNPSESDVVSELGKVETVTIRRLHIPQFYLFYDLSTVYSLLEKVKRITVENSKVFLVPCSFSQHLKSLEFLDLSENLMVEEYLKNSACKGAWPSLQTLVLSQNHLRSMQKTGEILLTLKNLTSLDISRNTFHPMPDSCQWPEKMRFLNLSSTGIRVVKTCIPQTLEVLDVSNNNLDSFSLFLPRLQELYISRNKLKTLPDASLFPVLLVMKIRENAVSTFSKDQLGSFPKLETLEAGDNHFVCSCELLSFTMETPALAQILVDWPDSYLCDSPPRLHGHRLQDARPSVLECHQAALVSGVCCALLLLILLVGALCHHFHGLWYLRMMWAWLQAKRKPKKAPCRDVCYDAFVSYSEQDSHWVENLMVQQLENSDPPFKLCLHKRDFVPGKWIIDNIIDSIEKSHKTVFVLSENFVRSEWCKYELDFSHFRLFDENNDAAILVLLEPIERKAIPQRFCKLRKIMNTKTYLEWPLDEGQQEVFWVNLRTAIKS

For Pam2Cys-SHYAPLPDS [LP1-34], the “levels of IL-12 from BMDCs compared with Pam2CSK4” value (BMDCs [1]) was “higher levels”, the “ability to enhance the level of RBD-specific mucosal sIgA and IgG compared with Pam2CSK4” value (BALB/c mice [2]; intranasal rRBD plus lipopeptide, n=5) was “stronger” and the “RBD-specific serum IgG” value (BALB/c mice [2]) was “significantly improved”. The “RBD-specific serum IgA” value (BALB/c mice [2]) was “significantly improved”, the “RBD-specific serum IgG1 compared with rRBD alone group” value (BALB/c mice [2]) was “elevated” and the “RBD-specific serum IgG2a compared with rRBD alone group” value (BALB/c mice [2]; n=5, Figure 8D) was “elevated”. For the same substance, the “rank of RBD-specific IgG2a response among LP1-34, LP2-2 and Pam2CSK4” value (BALB/c mice [2]; n=5, Figure 8D) was “highest”, the “SARS-CoV-2 pseudovirus neutralizing antibody titers in serum” value (SARS-CoV-2 pseudovirus) was “significantly augment” and the “serum OVA-specific IgA” value (BALB/c mice [3]) was “significantly increased”. The “serum OVA-specific IgG” value (BALB/c mice [3]) was “significantly increased”, the “OVA-specific sIgA in BALF compared with Pam2CSK4” value (BALB/c mice [3]) was “higher level” and the “vaginal OVA-specific IgG compared with Pam2CSK4” value (BALB/c mice [3]) was “higher level”. For the same substance, the “SEAP activity compared with Pam2CSK4” value [4] was “more increased SEAP activity than Pam2CSK4”, the “ability of BALF and nasal wash to inhibit RBD interaction with ACE2” value (RBD-ACE2 interaction; n=5, Figures 9C, D) was “improved” and the “rRBD-induced SARS-CoV-2 neutralizing antibody in sera (inhibition of RBD-ACE2 interaction)” value (RBD-ACE2 interaction) was “significantly elevated”.
For FSL-2, the “TLR2 activity of FSL-2 relative to that of FSL-1” value (TLR2) is listed as 80%.
For Pam2CSK4 [reference compound], the “IFN-γ-forming OVA257-264-specific CD8+ T cell response” value (BALB/c mice [5]) was “slightly elevated”, the “IFN-γ-forming OVA323-339-specific CD4+ T cell response” value (BALB/c mice [5]) was “slightly elevated” and the “RBD-specific serum IgG” value (BALB/c mice [2]) was “significantly improved”. The “RBD-specific serum IgA” value (BALB/c mice [2]) was “significantly improved”, the “RBD-specific serum IgG1 compared with rRBD alone group” value (BALB/c mice [2]) was “elevated” and the “RBD-specific serum IgG2a compared with rRBD alone group” value (BALB/c mice [2]; n=5, Figure 8D) was “elevated”. For the same substance, the “SARS-CoV-2 pseudovirus neutralizing antibody titers in serum” value (SARS-CoV-2 pseudovirus) was “significantly augment”, the “TLR2 agonist potency rank among the four lipopeptides (FSL-1, FSL-2, MALP-2, Pam2CSK4)” value (TLR2) was “most potent TLR2 agonist” and the “serum OVA-specific IgG2a levels” value (BALB/c mice [3]) was “elevated”. The “rRBD-induced SARS-CoV-2 neutralizing antibody in sera (inhibition of RBD-ACE2 interaction)” value (RBD-ACE2 interaction) was “significantly elevated”.
With Pam2Cys-SEFAHPRHG [LP2-2] the “RBD-specific serum IgG” value (BALB/c mice [2]) was “significantly improved”, the “RBD-specific serum IgA” value (BALB/c mice [2]) was “significantly improved” and the “RBD-specific serum IgG1 compared with rRBD alone group” value (BALB/c mice [2]) was “elevated”. The “RBD-specific serum IgG2a compared with rRBD alone group” value (BALB/c mice [2]; n=5, Figure 8D) was “elevated”, the “SARS-CoV-2 pseudovirus neutralizing antibody titers in serum” value (SARS-CoV-2 pseudovirus) was “significantly augment” and the “serum OVA-specific IgA” value (BALB/c mice [3]) was “significantly increased”. The “serum OVA-specific IgG” value (BALB/c mice [3]) was “significantly increased”, the “serum OVA-specific IgG response compared with Pam2CSK4” value (BALB/c mice [3]) was “more robust” and the “serum OVA-specific IgG2a levels” value (BALB/c mice [3]) was “elevated”. The “OVA-specific sIgA in BALF compared with Pam2CSK4” value (BALB/c mice [3]) was “higher level”, the “vaginal OVA-specific IgG compared with Pam2CSK4” value (BALB/c mice [3]) was “higher level” and the “SEAP activity compared with Pam2CSK4” value [4] was “more increased SEAP activity than Pam2CSK4”. The “rRBD-induced SARS-CoV-2 neutralizing antibody in sera (inhibition of RBD-ACE2 interaction)” value (RBD-ACE2 interaction) was “significantly elevated”.
For MALP-2, the “sIgA in BALF and vaginal lavages” value ([6]; intranasal co-administration with a soluble antigen) is given as “elevated”.
For FSL-1, the “EV71-specific IgG and IgA in serum, nasal washes, BALF, and feces compared with the control group” value ([6]; intranasal, inactivated EV71 vaccine plus FSL-1) is given as “higher level” and the “TLR2 activity of FSL-1 relative to that of MALP-2” value (TLR2) is given as 4 times.
With “Pam2Cys-SKHANNTHA [LP1-14, novel synthetic lipopeptide]” the “cytotoxicity on BMDCs (MTT)” value (BMDCs [7]) was “slightly cytotoxic” and the “SEAP activity compared with Pam2CSK4” value [4] was “more increased SEAP activity than Pam2CSK4”.
For “Pam2Cys-SLARRNDTN [LP1-30, novel synthetic lipopeptide]”, the “levels of IL-12 from BMDCs compared with Pam2CSK4” value (BMDCs [1]) was “higher levels”, the “stimulating effect on costimulatory molecule expression of BMDCs compared with Pam2CSK4” value (BMDCs [8]) was “more potent stimulating effect” and the “anti-lipopeptide IgG antibodies in sera” value (BALB/c mice [3]; OVA+LP1-30 group, ELISA, n=5, Figure S4) was “did not reach statistical significance”. For the same substance, the “serum OVA-specific IgA” value (BALB/c mice [3]) was “significantly increased”, the “serum OVA-specific IgG” value (BALB/c mice [3]) was “significantly increased” and the “vaginal OVA-specific IgG compared with Pam2CSK4” value (BALB/c mice [3]) was “higher level”. The “SEAP activity compared with Pam2CSK4” value [4] was “more increased SEAP activity than Pam2CSK4”.
For “Pam2Cys-SEFQATYAP [LP2-3, novel synthetic lipopeptide]”, the “serum OVA-specific IgA” value (BALB/c mice [3]) was “significantly increased”, the “serum OVA-specific IgG” value (BALB/c mice [3]) was “significantly increased” and the “serum OVA-specific IgG response compared with Pam2CSK4” value (BALB/c mice [3]) was “more robust”. For the same substance, the “serum OVA-specific IgG2a levels” value (BALB/c mice [3]) was “elevated” and the “SEAP activity compared with Pam2CSK4” value [4] was “more increased SEAP activity than Pam2CSK4”.
